# ChEMBL document CHEMBL5365438, “2-Substituted 1,5-benzothiazepine-based HDAC inhibitors exert anticancer activities on human solid and acute myeloid leukemia cell lines” (Bioorg Med Chem, 2023)
# pIC50: −log10 of the molar value. Activity calls are given as the source filed them. No cut-off for these calls is given here.
# Assays:
# HCT-116 [1] = experiment: Cytotoxicity against human HCT-116 cells assessed as reduction in cell death at 1 uM incubated for 24 hrs by PI staining based FACS analysis; assay type: functional
# Histone deacetylase = assay type: subcellular, Homo sapiens, Nucleus; conditions: hela
# Description: Inhibition of HDAC in human HeLa cell nuclear extract using Kac fluorogenic peptide as substrate containing residues 379-382 of p53 by fluorescence assay
# U-937 [2] = experiment: Cytotoxicity against human U-937 cells assessed as cell death at 1 to 5 uM incubated for 24 hrs by PI staining based FACS analysis relative to control; assay type: functional; conditions: dose 1-5 µM
# HCT-116 [3] = experiment: Cytotoxicity against human HCT-116 cells assessed as cell death at 5 uM incubated for 24 hrs by PI staining based FACS analysis relative to control; assay type: functional
# U-937 [4] = experiment: Induction of cell cycle arrest in human U-937 assessed as reduced accumulation of cells in S phase at 1 uM incubated for 24 hrs by FACS analysis; assay type: functional, cell-based
# U-937 [5] = experiment: Induction of cell cycle arrest in human U-937 assessed as increase accumulation of cells in G2/M phase at 1 to 5 uM incubated for 24 hrs by FACS analysis; assay type: functional, cell-based; conditions: dose 1-5 µM
# U-937 [6] = experiment: Induction of cell cycle arrest in human U-937 assessed as decrease accumulation of cells in G1 phase at 5 uM incubated for 24 hrs by FACS analysis; assay type: functional, cell-based
# HCT-116 [7] = experiment: Induction of cell cycle arrest in human HCT-116 assessed as accumulation of cells in G2/M phase at 1 to 5 uM incubated for 24 hrs by FACS analysis relative to SAHA; assay type: functional; conditions: dose 1-5 µM
# [8] = molecular target: T1, Histone deacetylase (Homo sapiens) (UniProt Q13547+O15379+Q9UBN7+Q92769+Q9UQL6+Q8WUI4+Q9BY41+Q96DB2+P56524+Q9UKV0+Q969S8); experiment: Inhibition of HDAC in human U-937 cells assessed as upregulation of acetyl alpha-tubulin level at 5 uM incubated for 24 hrs by immunoblotting analysis; assay type: cell-based
# [9] = molecular target: T1, Histone deacetylase (Homo sapiens); experiment: Inhibition of HDAC in human HCT-116 cells assessed as upregulation of acetyl alpha-tubulin level at 1 to 5 uM incubated for 24 hrs by immunoblotting analysis; assay type: cell-based; conditions: dose 1-5 µM
# HCT-116 [10] = experiment: Induction of apoptosis in human HCT-116 cells assessed as increased p21 protein expression level at 1 to 5 uM incubated for 24 hrs by immunoblotting analysis; assay type: functional, cell-based; conditions: dose 1-5 µM
# U-937 [11] = experiment: Induction of apoptosis in human U-937 cells assessed as increased p21 protein expression level at 1 to 5 uM incubated for 24 hrs by immunoblotting analysis; assay type: functional, cell-based; conditions: dose 1-5 µM
# [12] = molecular target: T2, Protein deacetylase HDAC6 (Homo sapiens) (UniProt Q9UBN7); experiment: Inhibition of HDAC6 (unknown origin) at 10 uM using fluorogenic peptide as substrate pre-incubated for 15 mins followed by substrate addition incubated for 30 mins by fluorescence assay; conditions: time 45.0 min
# T2 sequence (whole entry): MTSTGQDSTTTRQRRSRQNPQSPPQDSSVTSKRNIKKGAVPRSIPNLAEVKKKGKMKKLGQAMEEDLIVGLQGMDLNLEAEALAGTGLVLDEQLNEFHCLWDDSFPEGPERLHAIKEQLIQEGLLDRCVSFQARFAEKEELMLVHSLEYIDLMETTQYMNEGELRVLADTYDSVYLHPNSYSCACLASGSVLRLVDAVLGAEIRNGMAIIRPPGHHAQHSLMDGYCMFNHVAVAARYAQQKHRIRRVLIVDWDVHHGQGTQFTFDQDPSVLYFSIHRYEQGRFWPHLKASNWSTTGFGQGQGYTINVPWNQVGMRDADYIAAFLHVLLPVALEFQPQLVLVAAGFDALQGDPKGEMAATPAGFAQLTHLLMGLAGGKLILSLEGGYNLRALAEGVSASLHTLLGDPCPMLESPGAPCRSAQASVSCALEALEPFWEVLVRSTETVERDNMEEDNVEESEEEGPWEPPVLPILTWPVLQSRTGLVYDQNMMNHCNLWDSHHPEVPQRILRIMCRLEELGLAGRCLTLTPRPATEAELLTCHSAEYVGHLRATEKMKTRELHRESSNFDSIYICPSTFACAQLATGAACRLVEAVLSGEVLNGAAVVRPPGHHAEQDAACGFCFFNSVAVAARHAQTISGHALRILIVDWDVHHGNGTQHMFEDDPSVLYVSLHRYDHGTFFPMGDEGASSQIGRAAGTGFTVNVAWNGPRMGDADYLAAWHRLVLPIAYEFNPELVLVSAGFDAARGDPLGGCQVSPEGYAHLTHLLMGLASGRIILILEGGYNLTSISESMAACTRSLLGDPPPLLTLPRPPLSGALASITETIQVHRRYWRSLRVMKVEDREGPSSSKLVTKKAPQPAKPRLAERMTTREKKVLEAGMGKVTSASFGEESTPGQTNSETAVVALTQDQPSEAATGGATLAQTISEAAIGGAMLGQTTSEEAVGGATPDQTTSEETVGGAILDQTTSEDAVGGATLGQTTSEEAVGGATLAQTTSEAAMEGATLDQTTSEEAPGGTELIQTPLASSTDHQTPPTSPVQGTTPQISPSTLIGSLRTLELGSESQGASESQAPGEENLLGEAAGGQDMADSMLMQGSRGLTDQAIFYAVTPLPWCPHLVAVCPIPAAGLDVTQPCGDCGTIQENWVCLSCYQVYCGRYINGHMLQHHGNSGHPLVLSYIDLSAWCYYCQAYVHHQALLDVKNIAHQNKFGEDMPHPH
# [13] = molecular target: T1, Histone deacetylase (Homo sapiens); experiment: Inhibition of HDAC in human U-937 cells assessed as upregulation of histone H3 acetylation at lysine 14 residue at 5 uM incubated for 24 hrs by immunoblotting analysis; assay type: cell-based
# Histone deacetylase 1 [14] = molecular target: T3, Histone deacetylase 1 (Homo sapiens, UniProt Q13547); experiment: Inhibition of HDAC1 (unknown origin) at 10 uM using fluorogenic peptide as substrate pre-incubated for 15 mins followed by substrate addition incubated for 30 mins by fluorescence assay relative to control; conditions: time 45.0 min
# T3 sequence (Q13547 whole entry, the tested form may be a part): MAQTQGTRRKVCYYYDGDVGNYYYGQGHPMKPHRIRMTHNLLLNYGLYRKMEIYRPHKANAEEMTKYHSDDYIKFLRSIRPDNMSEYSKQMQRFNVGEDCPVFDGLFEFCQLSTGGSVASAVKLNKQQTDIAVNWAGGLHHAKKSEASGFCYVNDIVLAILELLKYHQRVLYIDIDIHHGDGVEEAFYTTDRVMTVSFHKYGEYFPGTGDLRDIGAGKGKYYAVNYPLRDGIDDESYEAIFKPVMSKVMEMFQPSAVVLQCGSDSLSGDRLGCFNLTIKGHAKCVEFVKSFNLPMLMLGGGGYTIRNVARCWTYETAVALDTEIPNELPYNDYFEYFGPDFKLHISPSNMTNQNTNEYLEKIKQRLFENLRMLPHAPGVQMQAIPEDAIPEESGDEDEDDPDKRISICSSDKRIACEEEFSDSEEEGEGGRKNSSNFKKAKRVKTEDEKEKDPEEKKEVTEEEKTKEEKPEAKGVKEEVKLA
# Histone deacetylase 1 [15] = molecular target: T3, Histone deacetylase 1; experiment: Inhibition of HDAC1 (unknown origin) using fluorogenic peptide as the substrate containing residues 379-382 of p53 pre-incubated for 15 mins followed by substrate addition incubated for 30 mins by multimode plate reader
# [16] = molecular target: T1, Histone deacetylase (Homo sapiens); experiment: Inhibition of HDAC in human U-937 cells assessed as upregulation of histone H3 acetylation at lysine 14 residue at 1 uM incubated for 24 hrs by immunoblotting analysis; assay type: cell-based
# [17] = molecular target: T1, Histone deacetylase (Homo sapiens); experiment: Inhibition of HDAC in human HCT-116 cells assessed as upregulation of histone H3 acetylation at lysine 14 residue at 1 uM incubated for 24 hrs by immunoblotting analysis; assay type: cell-based
# U-937 [18] = experiment: Induction of cell cycle arrest in human U-937 assessed as decrease accumulation of cells in G1 phase at 1 to 5 uM incubated for 24 hrs by FACS analysis; assay type: functional, cell-based; conditions: dose 1-5 µM
# HCT-116 [19] = experiment: Induction of cell cycle arrest in human HCT-116 assessed as decrease accumulation of cells in G1 phase at 1 to 5 uM incubated for 24 hrs by FACS analysis; assay type: functional, cell-based; conditions: dose 1-5 µM
# U-937 [20] = experiment: Induction of cell cycle arrest in human U-937 assessed as decrease accumulation of cells in S phase at 1 to 5 uM incubated for 24 hrs by FACS analysis; assay type: functional, cell-based; conditions: dose 1-5 µM
# HCT-116 [21] = experiment: Induction of cell cycle arrest in human HCT-116 assessed as decrease accumulation of cells in S phase at 1 to 5 uM incubated for 24 hrs by FACS analysis; assay type: functional, cell-based; conditions: dose 1-5 µM
SMILES,Activity (HCT-116 [1]),IC50 (Histone deacetylase) [nM],Activity (U-937 [2]),Activity (HCT-116 [3]) [%],Activity (U-937 [4]),Activity (U-937 [5]),Activity (U-937 [6]),Activity (HCT-116 [7]),Activity [8],Activity [9],Activity (HCT-116 [10]),Activity (U-937 [11]),inhibition [12] [%],Activity [13],inhibition (Histone deacetylase 1 [14]) [%],pIC50 (Histone deacetylase 1 [15]),Activity [16],Activity [17],Activity (U-937 [18]),Activity (HCT-116 [19]),also measured
O=C(CCCCCN1C(=O)C[C@H](c2ccc(Cl)c(Cl)c2)Sc2ccccc21)NO,Active,274.4,Active,22,Active,Active,Active,Active,Active,Active,Active,Active,,,,,,,,,
O=C(CCCCCCC(=O)Nc1ccc([C@H]2O[C@@H](CSc3nc(-c4ccccc4)c(-c4ccccc4)o3)C[C@@H](c3ccc(CO)cc3)O2)cc1)NO,,,,,,,,,,,,,94.3,,,,,,,,
Cc1ccc(C2CC(=O)N(CCCCCC(=O)NO)c3ccccc3S2)cc1 (racemic),Active,123.4,Active,22,Active,Active,Active,Active,Active,Active,Active,Active,,Active,,,,,,,
Cc1ccc(C2CC(=O)N(CCCCCC(=O)NO)c3ccccc3S2(=O)=O)cc1 (racemic),,42.2,~6%,,,Active,,Active,Active,Active,Active,Active,98.6,Active,93.5,6.76,Active,Active,Active,Active,Activity (U-937 [20]): Active; Activity (HCT-116 [21]): Active
O=C(CCCCCN1C(=O)CC(c2c3ccccc3cc3ccccc23)Sc2ccccc21)NO (racemic),Active,246,Active,22,Active,Active,Active,Active,Active,Active,Active,Active,,Active,,,,,,,
O=C(CCCCCN1C(=O)CC(c2ccccc2Cl)Sc2ccccc21)NO (racemic),Active,109.4,Active,22,Active,Active,Active,Active,Active,Active,Active,Active,,Active,,,,,,,
O=C(CCCCCN1C(=O)CC(c2ccccc2Cl)S(=O)(=O)c2ccccc21)NO (racemic),,40.6,~6%,,,Active,,Active,Active,Active,Active,Active,99.4,Active,92.6,6.57,Active,Active,Active,Active,Activity (U-937 [20]): Active; Activity (HCT-116 [21]): Active
O=C(CCCCCN1C(=O)CC(c2cccc3ccccc23)Sc2ccccc21)NO (racemic),Active,259.3,Active,22,Active,Active,Active,Active,Active,Active,Active,Active,,Active,,,Active,,,,
O=C(CCCCCN1C(=O)CC(c2cccc3ccccc23)S(=O)(=O)c2ccccc21)NO (racemic),,77.9,~6%,,,Active,,Active,Active,Active,Active,Active,99.3,Active,80.9,6.42,Active,Active,Active,Active,Activity (U-937 [20]): Active; Activity (HCT-116 [21]): Active
COc1ccc(C2CC(=O)N(CCCCCC(=O)NO)c3ccccc3S2)cc1 (racemic),Active,118.3,Active,22,Active,Active,Active,~75%,Active,Active,Active,Active,,Active,,,,,,,
COc1ccc(C2CC(=O)N(CCCCCC(=O)NO)c3ccccc3S2(=O)=O)cc1 (racemic),,114.6,~6%,,,Active,,Active,Active,Active,Active,Active,95.8,Active,94.2,6.61,Active,Active,Active,Active,Activity (U-937 [20]): Active; Activity (HCT-116 [21]): Active
